Source: patent US20250025411A1, “READILY SOLUBLE AND THERMOSTABLE GLUCAGON FORMULATIONS AND DELIVERY FOR MINI-DOSING AND CLOSED -LOOP PROPHYLACTIC TREATMENT OF HYPOGLYCEMIA” (Massachusetts Institute of Technology, priority 2023, published 2025)

Experiment: High throughput screening of water-soluble solid excipients for glucagon dissolution
Format: physicochemical
Details: for Fold change vs. PBS Avg.: 30-minute incubation in pH 7.4 PBS containing 1 mg/mL excipient; for Fold change vs. PBS Avg. / Glucagon concentration Avg.: 37° C.; for Glucagon concentration Avg.: solubilized glucagon after 30-minute incubation of lyophilized glucagon in pH 7.4 PBS containing 1 mg/mL excipient; for enhancement of glucagon dissolution (statistical significance compared to no excipient): 30-minute incubation in pH 7.4 PBS at 37° C.

Structure (SMILES)	Fold change vs. PBS Avg.	Glucagon concentration Avg.	Fold change vs. PBS Avg. (listed as L-Histidine)	Glucagon concentration Avg. (listed as L-Histidine)	enhancement of solution glucagon concentration compared to unformulated glucagon (pH 7.4 PBS)	enhancement of glucagon dissolution (statistical significance compared to no excipient)
O=S(=O)([O-])CCC[P+](c1ccccc1)(c1ccccc1)c1ccccc1 [3-(Triphenylphosphonio)propane-1-sulfonate]	1.21 fold	0.26 mg/mL	–	–	–	–
NC(=O)CNCCS(=O)(=O)O [ACES]	1.12 fold	0.24 mg/mL	–	–	–	–
OC[C@H]1O[C@@H]2O[C@H]3[C@H](O)[C@@H](O)[C@@H](O[C@H]4[C@H](O)[C@@H](O)[C@@H](O[C@H]5[C@H](O)[C@@H](O)[C@@H](O[C@H]6[C@H](O)[C@@H](O)[C@@H](O[C@H]7[C@H](O)[C@@H](O)[C@@H](O[C@H]1[C@H](O)[C@H]2O)O[C@@H]7CO)O[C@@H]6CO)O[C@@H]5CO)O[C@@H]4CO)O[C@@H]3CO [Alpha cyclodextrin]	0.55 fold	0.12 mg/mL	–	–	–	–
NC(=O)C[C@H](N)C(=O)O.O [Asparagine monohydrate]	1.55 fold	0.33 mg/mL	–	–	–	–
OC[C@H]1O[C@@H]2O[C@H]3[C@H](O)[C@@H](O)[C@@H](O[C@H]4[C@H](O)[C@@H](O)[C@@H](O[C@H]5[C@H](O)[C@@H](O)[C@@H](O[C@H]6[C@H](O)[C@@H](O)[C@@H](O[C@H]7[C@H](O)[C@@H](O)[C@@H](O[C@H]8[C@H](O)[C@@H](O)[C@@H](O[C@H]1[C@H](O)[C@H]2O)O[C@@H]8CO)O[C@@H]7CO)O[C@@H]6CO)O[C@@H]5CO)O[C@@H]4CO)O[C@@H]3CO [B-Cyclodextrin]	1.40 fold	0.30 mg/mL	–	–	–	–
O=C(O)c1ccccc1 [Benzoic acid]	15.09 fold	3.25 mg/mL	–	–	–	successfully enhanced the dissolution of glucagon
CC(C)(O)C(Cl)(Cl)Cl [Chlorobutanol Hemihydrate]	1.83 fold	0.39 mg/mL	–	–	–	–
O=C(CO)[C@@H](O)[C@H](O)[C@H](O)CO [D-(−)-Fructose]	1.09 fold	0.23 mg/mL	–	–	–	–
O=C[C@H](O)[C@@H](O)[C@H](O)[C@H](O)CO [D-glucose]	1.08 fold	0.23 mg/mL	–	–	–	–
O.O=C[C@H](O)[C@@H](O)[C@H](O)[C@H](O)CO [Dextrose Monohydrate]	1.09 fold	0.24 mg/mL	–	–	–	–
CCCCCCCCCCCCOP(=O)([O-])OCC[N+](C)(C)C [Dodecylphosphocholine]	4.37 fold	0.94 mg/mL	–	–	–	successfully enhanced the dissolution of glucagon
O=S(=O)(O)CCCN1CCN(CCO)CC1 [EPPS]	0.79 fold	0.17 mg/mL	–	–	–	–
Cl.N[C@@H](CS)C(=O)O [L-Cysteine hydrochloride]	0.93 fold	0.20 mg/mL	–	–	–	–
N[C@@H](CS)C(=O)O [L-Cysteine]	0.60 fold	0.13 mg/mL	–	–	–	–
N[C@@H](Cc1c[nH]c2ccccc12)C(=O)O [L-Tryptophan]	1.54 fold	0.33 mg/mL	–	–	–	–
NCCCC[C@H](N)C(=O)O [L-lysine]	2.84 fold	0.61 mg/mL	–	–	–	–
CCCCCCCCCCCC[N+](C)(C)CCCS(=O)(=O)O [Lauryl sulfobetaine]	0.52 fold	0.11 mg/mL	–	–	–	–
O=S(=O)(O)CCCN1CCOCC1 [MOPS]	0.80 fold	0.17 mg/mL	–	–	–	–
CCCCCCCCCCCCCC[N+](C)(C)CCCS(=O)(=O)[O-] [Myristyl sulfobetaine]	5.33 fold	1.15 mg/mL	–	–	up to 500%	successfully enhanced the dissolution of glucagon
NC(=O)c1cccnc1 [Niacinamide]	1.17 fold	0.25 mg/mL	–	–	–	–
CCCCCCCC[N+](C)(C)CCCS(=O)(=O)[O-] [Octyl sulfobetaine]	1.15 fold	0.25 mg/mL	–	–	–	–
O=C([O-])[C@H](O)[C@@H](O)[C@H](O)[C@H](O)CO.[K+] [Potassium Gluconate]	1.61 fold	0.35 mg/mL	–	–	–	–
O=S([O-])S(=O)(=O)[O-].[K+].[K+] [Potassium Metabisulfite]	2.13 fold	0.46 mg/mL	–	–	–	–
[Cl-].[K+] [Potassium chloride]	1.89 fold	0.41 mg/mL	–	–	–	–
O=C1NS(=O)(=O)c2ccccc21.[Na] [Saccharin Sodium]	1.21 fold	0.26 mg/mL	–	–	–	–

Continued, in another order:

Fold change vs. PBS Avg.	Glucagon concentration Avg.	Fold change vs. PBS Avg. (listed as L-Histidine)	Glucagon concentration Avg. (listed as L-Histidine)	enhancement of solution glucagon concentration compared to unformulated glucagon (pH 7.4 PBS)	Structure (SMILES)	enhancement of glucagon dissolution (statistical significance compared to no excipient)
0.26 fold	0.06 mg/mL	–	–	–	NC(=O)CN(CC(=O)O)CC(=O)O [ADA]	–
1.67 fold	0.36 mg/mL	–	–	–	OCCN(CCO)C(CO)(CO)CO [BIS-TRIS]	–
1.34 fold	0.29 mg/mL	–	–	–	NCCC(=O)O [Beta-Alanine]	–
1.11 fold	0.24 mg/mL	–	–	–	C[N+](C)(C)CC(=O)O [Betaine]	–
1.55 fold	0.33 mg/mL	–	–	–	OC[C@H]1O[C@H](O[C@H]2O[C@H](CO)[C@@H](O)[C@H](O)[C@H]2O)[C@H](O)[C@@H](O)[C@@H]1O [D-(+)-Trehalose]	–
1.42 fold	0.31 mg/mL	–	–	–	CC(C)(S)[C@@H](N)C(=O)O [D-Penicillamine]	–
1.16 fold	0.25 mg/mL	–	–	–	OC[C@@H](O)[C@@H](O)[C@H](O)[C@@H](O)CO [D-Sorbitol]	–
1.28 fold	0.28 mg/mL	–	–	–	O=S(=O)(O)CC(O)CN(CCO)CCO (centres unmarked) [DIPSO]	–
2.38 fold	0.51 mg/mL	–	–	–	O=C(O)C(S)C(S)C(=O)O (centres unmarked) [Dimercaptosuccinic acid]	–
3.11 fold	0.67 mg/mL	–	–	–	O=C(O)CN(CCOCCOCCN(CC(=O)O)CC(=O)O)CC(=O)O [EGTA]	–
1.98 fold	0.43 mg/mL	–	–	–	Nc1nc2ncc(CNc3ccc(C(=O)N[C@@H](CCC(=O)O)C(=O)O)cc3)nc2c(=O)[nH]1 [Folic acid]	–
1.15 fold	0.25 mg/mL	–	–	–	O=S(=O)(O)CCN1CCN(CCO)CC1 [HEPES]	–
1.74 fold	0.37 mg/mL	–	–	–	CC(O)COC[C@H]1O[C@@H]2O[C@H]3[C@H](O)[C@@H](O)[C@@H](O[C@H]4[C@H](O)[C@@H](O)[C@@H](O[C@H]5[C@H](O)[C@@H](O)[C@@H](O[C@H]6[C@H](O)[C@@H](O)[C@@H](O[C@H]7[C@H](O)[C@@H](O)[C@@H](O[C@H]8[C@H](O)[C@@H](O)[C@@H](O[C@H]1[C@H](O)[C@H]2O)O[C@@H]8COCC(C)O)O[C@@H]7COCC(C)O)O[C@@H]6COCC(C)O)O[C@@H]5COCC(C)O)O[C@@H]4COCC(C)O)O[C@@H]3COCC(C)O (some centres unmarked) [Hydroxypropyl Betadex]	–
1.88 fold	0.41 mg/mL	–	–	–	CC[C@H](C)[C@H](N)C(=O)O [Isoleucine]	–
1.52 fold	0.33 mg/mL	–	–	–	O=C[C@H](O)[C@@H](O)[C@@H](O)CO [L-(+)-Arabinose]	–
3.87 fold	0.83 mg/mL	–	–	–	NC(=O)CC[C@H](N)C(=O)O [L-Glutamine]	successfully enhanced the dissolution of glucagon
1.66 fold	0.36 mg/mL	–	–	–	N[C@@H](Cc1ccccc1)C(=O)O [L-Phenylalanine]	–
2.57 fold	0.55 mg/mL	1.41 fold	0.30 mg/mL	–	N[C@@H](Cc1c[nH]cn1)C(=O)O [L-histidine]	–
1.32 fold	0.28 mg/mL	–	–	–	CC(C)C[C@H](N)C(=O)O [L-leucine]	–
1.35 fold	0.29 mg/mL	–	–	–	O=C(O)[C@H](O)[C@@H](O)[C@H](O[C@@H]1O[C@H](CO)[C@H](O)[C@H](O)[C@H]1O)[C@H](O)CO [Lactobionic Acid]	–
1.37 fold	0.29 mg/mL	–	–	–	O=S(=O)(O)CC(O)CN1CCOCC1 (centres unmarked) [MOPSO]	–
0.34 fold	0.07 mg/mL	–	–	–	O=C(O)/C=C\C(=O)O [Maleic Acid]	–
0.35 fold	0.08 mg/mL	–	–	–	O=C(O)CC(O)C(=O)O (centres unmarked) [Malic Acid]	–
2.49 fold	0.54 mg/mL	–	–	–	OC[C@@H](O)[C@@H](O)[C@H](O)[C@H](O)CO [Mannitol]	–
–	1.32 mg/mL	–	–	–	CNC[C@H](O)[C@@H](O)[C@H](O)[C@H](O)CO [Meglumine]	–
1.81 fold	0.39 mg/mL	–	–	–	CSCC[C@H](N)C(=O)O [Methionine]	–
1.95 fold	0.42 mg/mL	–	–	–	O=C(O)CN(CCN(CC(=O)O)CC(=O)O)CCN(CC(=O)O)CC(=O)O [Pentetic Acid]	–
3.70 fold	0.80 mg/mL	–	–	–	O=S(=O)(O)CCN1CCN(CCS(=O)(=O)O)CC1 [Piperazine-N,N′-bis(2-ethanesulfonic acid)]	successfully enhanced the dissolution of glucagon
